# Experimental data from patent US20240199608A1 (Eli Lilly and Company, priority 2022, published 2024).
# pEC50: −log10 of the molar value.
# Molecular target: T1, Human AhR (Homo sapiens, UniProt P35869)
# T1 construct: expressed in transfected cells
# T1 sequence (P35869 11-848): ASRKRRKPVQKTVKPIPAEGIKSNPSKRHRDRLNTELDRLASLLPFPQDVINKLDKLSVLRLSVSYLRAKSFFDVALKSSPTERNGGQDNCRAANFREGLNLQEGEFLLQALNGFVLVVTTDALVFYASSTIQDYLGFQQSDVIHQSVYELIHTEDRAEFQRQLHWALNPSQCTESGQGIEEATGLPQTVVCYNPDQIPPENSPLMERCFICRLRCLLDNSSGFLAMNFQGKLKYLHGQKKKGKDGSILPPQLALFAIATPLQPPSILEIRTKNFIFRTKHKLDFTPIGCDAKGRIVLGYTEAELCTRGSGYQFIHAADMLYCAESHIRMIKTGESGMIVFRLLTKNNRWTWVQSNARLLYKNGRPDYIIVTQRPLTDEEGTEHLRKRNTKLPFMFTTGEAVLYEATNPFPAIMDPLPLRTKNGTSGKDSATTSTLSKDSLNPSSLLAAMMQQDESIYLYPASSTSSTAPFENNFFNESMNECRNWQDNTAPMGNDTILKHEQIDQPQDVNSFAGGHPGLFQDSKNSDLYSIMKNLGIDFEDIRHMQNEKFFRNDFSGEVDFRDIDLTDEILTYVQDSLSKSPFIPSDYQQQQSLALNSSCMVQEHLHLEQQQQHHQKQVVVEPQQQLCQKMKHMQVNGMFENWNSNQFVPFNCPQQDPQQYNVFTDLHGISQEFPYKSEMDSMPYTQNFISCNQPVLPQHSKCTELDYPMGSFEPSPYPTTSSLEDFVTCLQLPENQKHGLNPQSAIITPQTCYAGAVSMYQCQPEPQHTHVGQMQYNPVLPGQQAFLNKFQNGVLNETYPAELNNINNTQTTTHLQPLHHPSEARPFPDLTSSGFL
# Assay: hAHR Nuclear Translocation Assay
# Type: cell-based
# Conditions: AhR-EGFP nuclear translocation in Jump-In T-REx HEK293 cells, 45 minutes incubation; class symbols; read-out: Rel EC50
# Excerpt: The purpose of this assay is to measure the ability of compounds to bind to, activate, and induce the translocation of AhR into the nucleus of a cell for transcription. Stable cell lines were established using Jump-InTM T-RExTM HEK293 Retargeting Kit (Life Technologies). Human AhR cDNA was cloned into the pJTI R4 CMV-TO EGFP vector. The EGFP was cloned to the C-terminal of AHR to form AhR-EGFP chimera. The pJTI R4 CMV-TO AhR-EGFP vector was transfected using FuGENE® HD into Jump-InTM T-RExTM HEK293 cells. Transfected cells were selected using 2.5 mg/ml G418 for 10 to 14 days, then expanded, harvested, and suspended in freeze media (FBS with 8% DMSO) at 2×10^7 cells/ml, and aliquots were stored in liquid nitrogen. One day before the assay date, cells were thawed and resuspended in DMEM with 5% FBS in the presence of 1 μg/ml Doxycycline and plated into ploy-L-Lysine coated […]-384 ULTRA Microplates (Perkin Elmer) at 12,000 to 15,000 cells per well and incubated at 37° C. and 5% CO2 overnight. On the assay date, compound was serially diluted (1:2) into 384-well nunc plates with DMSO using acoustic dispensing (ECHO®). The dose response was a 20-point curve. […] The culture media was damped and 25 μl of DMEM plus 0.1% BSA was added, then 25 μL of compound in DMEM plus 0.1% BSA was added into cell plates. Cells were incubated compounds at 37° C. and 5% CO2 for 45 minutes. The final DMSO concentration was 0.2%. The media was damped after 45 minutes incubation. The cells were fixed with 40 μl of cold MeOH (-20° C.) for 20 minutes. The MeOH was damped and 50 μL of DPBS containing 1 μg/mL Hochst was added into the cell plates. The intensity of EGFP was quantitated by using Opera PHENIX® or OPERETTA® high content image system (Perkin Elmer) with 20× Water Objective and five field per well. The ratio of EGFP fluorescent intensity in nuclear over cytosol was analyzed using a 4-parameter nonlinear logistic equation to determine the potency of AhR agonists.
row,SMILES,pEC50
1,"CC1CCc2c1cc(C(=O)Nc1ccccn1)c1nncn21 (single isomer, unassigned) [Example 4]",< 7.30
2,"CC1CCc2c1cc(C(=O)Nc1nccs1)c1nncn21 (single isomer, unassigned) [Example 24, 6-Methyl-N-(thiazol-2-yl)-7,8-dihydro-6H-cyclopenta[e][1,2,4] triazolo[4,3-a]pyridine-4-carboxamide]",8.00 to 9.00
3,"CC1CCc2c1cc(C(=O)Nc1nccs1)c1nncn21 (single isomer, unassigned) [Example 25, 6-Methyl-N-(thiazol-2-yl)-7,8-dihydro-6H-cyclopenta[e][1,2,4] triazolo[4,3-a]pyridine-4-carboxamide]",8.00 to 9.00
4,"CC1CCc2c1cc(C(=O)Nc1ncc(C(F)(F)F)cn1)c1nncn21 (single isomer, unassigned) [Example 26, 6-Methyl-N-(5-(trifluoromethyl)pyrimidin-2-yl)-7,8-dihydro-6H-cyclopenta[e][1,2,4] triazolo[4,3-a]pyridine-4-carboxamide]",8.00 to 9.00
5,"Cc1cnc(NC(=O)c2cc3c(n4cnnc24)CCC3C)nc1 (single isomer, unassigned) [Example 28, 6-Methyl-N-(5-methylpyrimidin-2-yl)-7,8-dihydro-6H-cyclopenta[e][1,2,4]tria zolo[4,3-a]pyridine-4-carboxamide]",7.30 to 8.00
6,"Cc1cnc(NC(=O)c2cc3c(n4cnnc24)CCC3C)nc1 (single isomer, unassigned) [Example 29, 6-Methyl-N-(5-methylpyrimidin-2-yl)-7,8-dihydro-6H-cyclopenta[e][1,2,4]tria zolo[4,3-a]pyridine-4-carboxamide]",7.30 to 8.00
7,"CC1CCc2c1cc(C(=O)Nc1ncco1)c1nncn21 (single isomer, unassigned) [Example 31, 6-Methyl-N-(oxazol-2-yl)-7,8-dihydro-6H-cyclopenta[e][1,2,4] triazolo[4,3-a]pyridine-4-carboxamide]",7.30 to 8.00
8,"CC1CCc2c1cc(C(=O)Nc1ccc(C(F)(F)F)cn1)c1nncn21 (single isomer, unassigned) [Example 34, 6-Methyl-N-(5-(trifluoromethyl)95yridine-2-yl)-7,8-dihydro-6H-cyclopenta[e][1,2,4] triazolo[4,3-a]pyridine-4-carboxamide]",8.00 to 9.00
9,"CC1CCc2c1cc(C(=O)Nc1ncccc1F)c1nncn21 (single isomer, unassigned) [Example 36, N-(3-Fluoropyridin-2-yl)-6-methyl-7,8-dihydro-6H-cyclopenta[e][1,2,4] triazolo[4,3-a]pyridine-4-carboxamide]",8.00 to 9.00

# Second part, the compound after the results:
row,pEC50,SMILES
1,< 7.30,"COc1ccccc1NC(=O)c1cc2c(n3cnnc13)CCC2C (single isomer, unassigned) [Example 20, N-(2-methoxyphenyl)-6-methyl-7,8-dihydro-6H-cyclopenta[e][1,2,4] triazolo[4,3-a]pyridine-4-carboxamide]"
2,< 7.30,"COc1ccccc1NC(=O)c1cc2c(n3cnnc13)CCC2C (single isomer, unassigned) [Example 21, N-(2-methoxyphenyl)-6-methyl-7,8-dihydro-6H-cyclopenta[e][1,2,4] triazolo[4,3-a]pyridine-4-carboxamide]"
3,8.00 to 9.00,"CC1CCc2c1cc(C(=O)Nc1ncc(C(F)(F)F)cn1)c1nncn21 (single isomer, unassigned) [Example 27, 6-Methyl-N-(5-(trifluoromethyl)pyrimidin-2-yl)-7,8-dihydro-6H-cyclopenta[e][1,2,4] triazolo[4,3-a]pyridine-4-carboxamide]"
4,7.30 to 8.00,"CC1CCc2c1cc(C(=O)Nc1ncco1)c1nncn21 (single isomer, unassigned) [Example 30, 6-Methyl-N-(oxazol-2-yl)-7,8-dihydro-6H-cyclopenta[e][1,2,4] triazolo[4,3-a]pyridine-4-carboxamide]"
5,8.00 to 9.00,"CC1CCc2c1cc(C(=O)Nc1ccon1)c1nncn21 (single isomer, unassigned) [Example 32]"
6,< 7.30,"CC1CCc2c1cc(C(=O)Nc1ccon1)c1nncn21 (single isomer, unassigned) [Example 33]"
7,8.00 to 9.00,"CC1CCc2c1cc(C(=O)Nc1ccc(C(F)(F)F)cn1)c1nncn21 (single isomer, unassigned) [Example 35, 6-Methyl-N-(5-(trifluoromethyl)pyridin-2-yl)-7,8-dihydro-6H-cyclopenta[e][1,2,4] triazolo[4,3-a]pyridine-4-carboxamide]"
8,8.00 to 9.00,"CC1CCc2c1cc(C(=O)Nc1ncccc1F)c1nncn21 (single isomer, unassigned) [Example 37, N-(3-Fluoropyridin-2-yl)-6-methyl-7,8-dihydro-6H-cyclopenta[e][1,2,4] triazolo[4,3-a]pyridine-4-carboxamide]"

# Same assay, conditions: AhR-EGFP nuclear translocation in Jump-In T-REx HEK293 cells, 45 minutes incubation; numeric values; read-out: Rel EC50
row,SMILES,pEC50
1,"CC1CCc2c1cc(C(=O)Nc1ccccn1)c1nncn21 (single isomer, unassigned) [Example 3]",8.27
2,"CC1CCc2c1cc(C(=O)Nc1ncccn1)c1nncn21 (single isomer, unassigned) [Example 7, 6-Methyl-N-(pyrimidin-2-yl)-7,8-dihydro-6H-cyclopenta[e][1,2,4] triazolo[4,3-a]pyridine-4-carboxamide]",7.95
3,"C[C@H]1CCc2c1cc(C(=O)Nc1ncccn1)c1nncn21 (single isomer, unassigned) [Example 8, 6-Methyl-N-(pyrimidin-2-yl)-7,8-dihydro-6H-cyclopenta[e][1,2,4]triazolo [4,3-a]pyridine-4-carboxamide]",7.60
4,"CC1CCc2c1cc(C(=O)Nc1ccccn1)c1nccn21 (single isomer, unassigned) [Example 9, 6-Methyl-N-(pyridin-2-yl)-7,8-dihydro-6H-cyclopenta[e]imidazo[1,2-a]pyridine-4-carboxamide]",8.47
5,"C[C@H]1CCc2c1cc(C(=O)Nc1ccccn1)c1nccn21 (single isomer, unassigned) [Example 10, 6-Methyl-N-(pyridin-2-yl)-7,8-dihydro-6H-cyclopenta[e]imidazo[1,2-a]pyridine-4-carboxamide]",8.88
6,"CC1CCc2c1cc(C(=O)Nc1ncccn1)c1nccn21 (single isomer, unassigned) [Example 11, 6-Methyl-N-(pyrimidin-2-yl)-7,8-dihydro-6H-cyclopenta[e]imidazo[1,2-a]pyridine-4-carboxamide]",8.80
7,"C[C@H]1CCc2c1cc(C(=O)Nc1ncccn1)c1nccn21 (single isomer, unassigned) [Example 12, 6-Methyl-N-(pyrimidin-2-yl)-7,8-dihydro-6H-cyclopenta[e]imidazo[1,2-a]pyridine-4-carboxamide]",8.01

# Further lines, results first:
row,pEC50,SMILES
1,9.31,"CC1CCc2c1cc(C(=O)Nc1ncc(F)cn1)c1nccn21 (single isomer, unassigned) [Example 13, N-(5-Fluoropyrimidin-2-yl)-6-methyl-7,8-dihydro-6H-cyclopenta[e]imidazo[1,2-a]pyridine-4-carboxamide]"
2,8.78,"C[C@H]1CCc2c1cc(C(=O)Nc1ncc(F)cn1)c1nccn21 (single isomer, unassigned) [Example 14, N-(5-Fluoropyrimidin-2-yl)-6-methyl-7,8-dihydro-6H-cyclopenta[e]imidazo[1,2-a]pyridine-4-carboxamide]"
